Earlier results, collected in article PMC8364112 (Proceedings of the National Academy of Sciences of the …, 2021).

B1: substitution of Ile5^P of PTH with a histidine: PTH with Ile5 substituted with a histidine (peptide, UniProt P01270 32-115, looked up, variant I5H)
Parathyroid hormone: SVSEHQLMHNLGKHLNSMERVEWLRKKLQDVHNFVALGAPLAPRDAGSQRPRKKEDNVLVESHEKSLGEADKADVNVLTKAKSQ
modifications: Parathyroid hormone

Test system: PTH2R
Conditions: for mode of action on PTH2R: potent / mild / weak, ref [4], [16]

Molecule	mode of action on PTH2R [13]	action on PTH2R (ref [3], [4], [13])	effect of position 5 substitution on potency on PTH2R (ref [27])
parathyroid hormone (SVSEIQLMHNLGKHLNSMERVEWLRKKLQDVHNF; Parathyroid hormone; UniProt P01270 32-65, looked up, fragment) [PTH]	mild	–	–
PTH-related peptide [PTHrP]	weak	weak action on PTH2R	–
B1	–	–	decreases the peptide potency
